Source: patent publication US12528782B2, “Prodrugs in the modulation of interleukin” (BRISTOL-MYERS SQUIBB COMPANY, priority 2019, dated 2026)

Test: PK in rats after PO dosing of the prodrug of Example 1: circulating parent Compound I and prodrug
Format: in vivo
Conditions: for AUC / Cmax / Tmax: rat, in vivo, analyte = labelled substance
[1] = 150 mg/kg, Example 1 dosed PO at 150 mpk
[2] = 5 mg/kg, Example 1 dosed PO at 5 mpk
[3] = 25 mg/kg, Example 1 dosed PO at 25 mpk

Row | AUC Multiple+ (Example 1 dosed PO at 5 mpk) [X] | AUC Multiple+ (Example 1 dosed PO at 25 mpk) [X] | AUC Multiple+ (Example 1 dosed PO at 150 mpk) [X] | AUC [2] [µM·h] | Cmax [2] [µM] | Tmax [2] [h] | AUC [3] [µM·h] | Cmax [3] [µM] | Tmax [3] [h] | Compound | circulating prodrug as % of parent (PO, 150 mpk dose) | exposure to the prodrug (circulating prodrug following administration) (PO, therapeutic doses (5 and 25 mpk)) | AUC [1] [µM·h] | Cmax [1] [µM] | Tmax [1] [h]
1 | – | – | – | – | – | – | – | – | – | [2H]C([2H])([2H])NC(=O)c1cn(COP(=O)([O-])[O-])/c(=N/C(=O)C2CC2)cc1Nc1cccc(-c2nnn(C)n2)c1OC.[Na+].[Na+] [Example 1] | less than 0.05% | no exposure | 0.33 ± 0.21 | 0.69 ± 0.24 | 0.25
2 | 11 | 57 | 473 | 19.2 ± 1.7 | 4.91 ± 1.4 | 0.5 | 96.9 ± 13.2 | 13 ± 1.4 | 3 | [2H]C([2H])([2H])NC(=O)c1cnc(NC(=O)C2CC2)cc1Nc1cccc(-c2nnn(C)n2)c1OC [Compound I] | – | – | 804 ± 26.9 | 58.2 ± 5.7 | 3
